Experimental data: ChEMBL document CHEMBL2440076, “New triarylpyrazoles as broad-spectrum anticancer agents: design, synthesis, and biological evaluation” (Eur J Med Chem, 2013)

Key:
IGROV-1 = test: Growth inhibition of human IGROV1 cells assessed as cell growth at 10 uM after 48 hrs by sulforhodamine B assay; format: functional; conditions: IGROV-1, 48 h, read-out: Activity
Malme-3M [1] = test: Growth inhibition of human MALME-3M cells assessed as cell growth at 10 uM after 48 hrs by sulforhodamine B assay; format: functional; conditions: read-out: Activity
HCT-116 = test: Growth inhibition of human HCT116 cells after 48 hrs by sulforhodamine B assay; format: functional; conditions: HCT-116, 48 h
COLO 205 = test: Growth inhibition of human COLO205 cells after 48 hrs by sulforhodamine B assay; format: functional; conditions: COLO 205, 48 h
ACHN = test: Growth inhibition of human ACHN cells after 48 hrs by sulforhodamine B assay; format: functional
LOX IMVI [2] = test: Growth inhibition of human LOXIMVI cells after 48 hrs by sulforhodamine B assay; format: functional
SNB-19 = test: Growth inhibition of human SNB19 cells after 48 hrs by sulforhodamine B assay; format: functional; conditions: SNB-19, 48 h
NCI-H322M = test: Growth inhibition of human NCI-H322M cells assessed as cell growth at 10 uM after 48 hrs by sulforhodamine B assay; format: functional; conditions: read-out: Activity
NCI-H226 [3] = test: Growth inhibition of human NCI-H226 cells after 48 hrs by sulforhodamine B assay; format: functional; conditions: NCI-H226, 48 h
HOP-92 [4] = test: Growth inhibition of human HOP92 cells after 48 hrs by sulforhodamine B assay; format: functional, cell-based; conditions: HOP-92, 48 h
OVCAR-4 [5] = test: Growth inhibition of human OVCAR4 cells assessed as cell growth at 10 uM after 48 hrs by sulforhodamine B assay; format: functional; conditions: OVCAR-4, 48 h, read-out: Activity
HCT-15 [6] = test: Growth inhibition of human HCT15 cells assessed as cell growth at 10 uM after 48 hrs by sulforhodamine B assay; format: functional; conditions: HCT-15, 48 h, read-out: Activity
HCT-15 [7] = test: Growth inhibition of human HCT15 cells after 48 hrs by sulforhodamine B assay; format: functional; conditions: HCT-15, 48 h
CCRF-CEM = test: Growth inhibition of human CCRF-CEM cells assessed as cell growth at 10 uM after 48 hrs by sulforhodamine B assay; format: functional; conditions: read-out: Activity
KM12 = test: Growth inhibition of human KM12 cells assessed as cell growth at 10 uM after 48 hrs by sulforhodamine B assay; format: functional; conditions: KM12, 48 h, read-out: Activity
LOX IMVI [8] = test: Growth inhibition of human LOXIMVI cells assessed as cell growth at 10 uM after 48 hrs by sulforhodamine B assay; format: functional; conditions: read-out: Activity
SF-539 = test: Growth inhibition of human SF539 cells assessed as cell growth at 10 uM after 48 hrs by sulforhodamine B assay; format: functional; conditions: SF-539, 48 h, read-out: Activity
HT-29 = test: Growth inhibition of human HT-29 cells assessed as cell growth at 10 uM after 48 hrs by sulforhodamine B assay; format: functional; conditions: HT-29, 48 h, read-out: Activity
A498 = test: Growth inhibition of human A498 cells after 48 hrs by sulforhodamine B assay; format: functional, cell-based; conditions: A498, 48 h
A549 = test: Growth inhibition of human A549/ATCC cells assessed as cell growth at 10 uM after 48 hrs by sulforhodamine B assay; format: functional; conditions: A549, 48 h, read-out: Activity
HOP-62 = test: Growth inhibition of human HOP62 cells after 48 hrs by sulforhodamine B assay; format: functional; conditions: HOP-62, 48 h
SF-268 = test: Growth inhibition of human SF268 cells after 48 hrs by sulforhodamine B assay; format: functional; conditions: SF-268, 48 h
M14 = test: Growth inhibition of human M14 cells after 48 hrs by sulforhodamine B assay; format: functional; conditions: M14, 48 h
SN12C = test: Growth inhibition of human SN12C cells after 48 hrs by sulforhodamine B assay; format: functional
OVCAR-4 [9] = test: Growth inhibition of human OVCAR4 cells after 48 hrs by sulforhodamine B assay; format: functional; conditions: OVCAR-4, 48 h
OVCAR-8 = test: Growth inhibition of human OVCAR8 cells after 48 hrs by sulforhodamine B assay; format: functional; conditions: OVCAR-8, 48 h
MDA-MB-435 = test: Growth inhibition of human MDA-MB-435 cells assessed as cell growth at 10 uM after 48 hrs by sulforhodamine B assay; format: functional; conditions: MDA-MB-435, 48 h, read-out: Activity
HOP-92 [10] = test: Growth inhibition of human HOP92 cells assessed as cell growth at 10 uM after 48 hrs by sulforhodamine B assay; format: functional; conditions: HOP-92, 48 h, read-out: Activity
SR = test: Growth inhibition of human SR cells after 48 hrs by sulforhodamine B assay; format: functional
UACC-62 = test: Growth inhibition of human UACC62 cells after 48 hrs by sulforhodamine B assay; format: functional; conditions: UACC-62, 48 h
MOLT-4 = test: Growth inhibition of human MOLT4 cells assessed as cell growth at 10 uM after 48 hrs by sulforhodamine B assay; format: functional; conditions: MOLT-4, 48 h, read-out: Activity
MCF7 = test: Growth inhibition of human MCF7 cells assessed as cell growth at 10 uM after 48 hrs by sulforhodamine B assay; format: functional; conditions: MCF7, 48 h, read-out: Activity
[11] = Growth inhibition of human NCI-ADR-RES cells assessed as cell growth at 10 uM after 48 hrs by sulforhodamine B assay; format: functional; conditions: read-out: Activity
Malme-3M [12] = test: Growth inhibition of human MALME-3M cells after 48 hrs by sulforhodamine B assay; format: functional
NCI-H226 [13] = test: Growth inhibition of human NCI-H226 cells assessed as cell growth at 10 uM after 48 hrs by sulforhodamine B assay; format: functional; conditions: NCI-H226, 48 h, read-out: Activity
[14] = read-out: LC50 (the source's name)

For O=C(Nc1cccc(-n2cc(-c3ccncc3)c(-c3ccc(Cl)c(O)c3)n2)c1)Nc1cc(C(F)(F)F)cc(C(F)(F)F)c1, the growth at 10 µM (IGROV-1) was 4.8%, the growth at 10 µM (Malme-3M [1]) was -23% and the GI50 (HCT-116) was 0.428 µM. The TGI (HCT-116) was 1.11 µM, the CC50 (HCT-116; [14]) was 2.65 µM and the GI50 (COLO 205) was 0.853 µM. The LC50 (concentration killing 50% of cells) (COLO 205) was 2.92 µM, the TGI (COLO 205) was 1.58 µM and the GI50 (ACHN) was 0.624 µM. For the same molecule, the TGI (ACHN) was 5.27 µM, the CC50 (ACHN; [14]) was 17.3 µM and the GI50 (LOX IMVI [2]) was 0.712 µM. For the same molecule, the LC50 (LOX IMVI [2]) was 2.75 µM, the TGI (LOX IMVI [2]) was 1.4 µM and the GI50 (SNB-19) was 0.983 µM. For the same molecule, the LC50 (concentration killing 50% of cells) (SNB-19) was over 50 µM, the TGI (SNB-19) was 8.96 µM and the growth at 10 µM (NCI-H322M) was 5.11%. The GI50 (NCI-H226 [3]) was 1.24 µM, the TGI (NCI-H226 [3]) was 6.12 µM and the CC50 (NCI-H226 [3]; [14]) was 37.6 µM. The GI50 (HOP-92 [4]) was 0.344 µM, the IC50 (HOP-92 [4]) was 0.34 µM and the LC50 (HOP-92 [4]) was 8.66 µM. The TGI (HOP-92 [4]) was 1.75 µM, the growth at 10 µM (OVCAR-4 [5]) was 0.87% and the growth at 10 µM (HCT-15 [6]) was -7.23%. It also gave a GI50 (HCT-15 [7]) of 0.474 µM, an LC50 (HCT-15 [7]) of 21.2 µM and a TGI (HCT-15 [7]) of 3.52 µM. The growth at 10 µM (CCRF-CEM) was -16%, the growth at 10 µM (KM12) was -50.3% and the growth at 10 µM (LOX IMVI [8]) was -94.1%. For the same molecule, the growth at 10 µM (SF-539) was -63%, the growth at 10 µM (HT-29) was -56% and the GI50 (A498) was 0.792 µM. For the same molecule, the IC50 (A498) was 0.79 µM, the TGI (A498) was 4.33 µM and the CC50 (A498; [14]) was 16 µM. The growth at 10 µM (A549) was -32.5%, the GI50 (HOP-62) was 0.964 µM and the TGI (HOP-62) was 1.98 µM. It also gave a CC50 (HOP-62; [14]) of 4.07 µM, a GI50 (SF-268) of 0.846 µM and a TGI (SF-268) of 2.69 µM. For the same molecule, the CC50 (SF-268; [14]) was 20.5 µM, the GI50 (M14) was 0.607 µM and the LC50 (concentration killing 50% of cells) (M14) was 6.06 µM. For the same molecule, the TGI (M14) was 1.81 µM, the GI50 (SN12C) was 1.03 µM and the TGI (SN12C) was 5.45 µM. For the same molecule, the CC50 (SN12C; [14]) was over 50 µM, the GI50 (OVCAR-4 [9]) was 0.849 µM and the LC50 (concentration killing 50% of cells) (OVCAR-4 [9]) was 23.9 µM. It also gave a TGI (OVCAR-4 [9]) of 5.01 µM, a GI50 (OVCAR-8) of 0.563 µM and a TGI (OVCAR-8) of 5.92 µM. For the same molecule, the CC50 (OVCAR-8; [14]) was 43.7 µM, the growth at 10 µM (MDA-MB-435) was -31.1% and the growth at 10 µM (HOP-92 [10]) was -45.8%. The GI50 (SR) was 0.922 µM, the TGI (SR) was 3.66 µM and the CC50 (SR; [14]) was over 50 µM. For the same molecule, the GI50 (UACC-62) was 0.749 µM, the LC50 (50% lethal concentration) (UACC-62) was 8.46 µM and the TGI (UACC-62) was 2.19 µM. It also gave a growth at 10 µM (MOLT-4) of -18.5%, a growth at 10 µM (MCF7) of 2.71% and a growth at 10 µM [11] of 4.72%. It also gave a GI50 (Malme-3M [12]) of 0.939 µM, an LC50 (concentration killing 50% of starting cells) (Malme-3M [12]) of 23.5 µM and a TGI (Malme-3M [12]) of 3.03 µM. For the same molecule, the growth at 10 µM (NCI-H226 [13]) was 1.17%.
